Consider 14 compounds from patent US11090304B2 (Amgen Inc., priority 2018, dated 2021).

Where two headings read alike, the source gives them in different places.

In assay [1] the target is GDP-bound KRAS protein (aa 1-169), containing both G12C and C118A amino acid substitutions (Homo sapiens, UniProt P01116, C118A/G12C). The assay is described as follows: Coupled nucleotide exchange assay (SOS-mediated, AlphaScreen). The assay is classed as biochemical. Conditions: for Coupled exchange IC50 (5 min): 5 min compound pre-incubation; for Coupled exchange IC50 (2 h): 2 h compound pre-incubation.

For assay [2], the system named is Phosphorylation of ERK1/2 in MIA PaCa-2 cells. The assay is described as follows: Phospho-ERK1/2 MSD assay in MIA PaCa-2 cells. The assay is classed as cell-based. Conditions: Homo sapiens. The gist of the method: (§1)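 In the procedure, cells were plated a day ahead at 25,000 per well. Next, a dilution series of compound in growth medium was added for 2 or 4 h. EGF (10 ng/mL) stimulation for 10 min preceded washing and RIPA lysis. Lysate phospho-ERK1/2 was read by MSD, with IC50 derived by 4-parameter logistic analysis.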

Assay [3] has as its system Phosphorylation of ERK1/2 in A549 cells. The assay is described as follows: Phospho-ERK1/2 MSD assay in A549 cells. The assay is classed as cell-based. Conditions: Homo sapiens. An outline of the steps:
as §1

[4] abbreviates: MIA PaCa-2, 2 h, read-out: p-ERK IC50 (2 h; MIA PaCa-2), 2 h compound treatment.
[5] abbreviates: A549, 2 h, read-out: p-ERK IC50 (2 h; A549), 2 h compound treatment.
[6] abbreviates: MIA PaCa-2, 4 h, read-out: p-ERK IC50 (4 h; MIA PaCa-2), 4 h compound treatment.
The mark [7] stands for this setting: A549, 4 h, read-out: p-ERK IC50 (4 h; A549), 4 h compound treatment.

Sequence of GDP-bound KRAS protein (aa 1-169), containing both G12C and C118A amino acid substitutions (P01116 1-169 isoform P01116-2 G12C/C118A): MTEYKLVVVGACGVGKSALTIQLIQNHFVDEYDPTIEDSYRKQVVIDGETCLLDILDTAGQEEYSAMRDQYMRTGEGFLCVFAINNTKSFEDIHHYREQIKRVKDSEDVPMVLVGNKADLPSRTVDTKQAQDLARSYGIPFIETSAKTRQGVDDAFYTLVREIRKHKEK

As for `C=CC(=O)N1CCN(c2nc(=O)n(-c3nccnc3C3CC3)c3nc(-c4c(O)cccc4F)c(Cl)cc23)[C@@H](C)C1` [Example 60-8, 6-chloro-1-(3-cyclopropyl-2-pyrazinyl)-7-(2-fluoro-6-hydroxyphenyl)-4-((2S)-2-methyl-4-(2-propenoyl)-1-piperazinyl)pyrido[2,3-d]pyrimidin-2(1H)-one], the “Coupled exchange IC50 (5 min)” value in assay [1] is recorded as 0.173 | nda μM. The IC50 was 72 nM in assay [2] (setting [4]) and ≥ 10000 nM in assay [3] (setting [5]).
Turning to `C=CC(=O)N1CCN(c2nc(=O)n(-c3c(C4CC4)ncnc3C3CC3)c3nc(-c4ccccc4F)c(Cl)cc23)[C@@H](C)C1` [Example 60-11, 6-chloro-1-(4,6-dicyclopropyl-5-pyrimidinyl)-7-(2-fluorophenyl)-4-((2S)-2-methyl-4-(2-propenoyl)-1-piperazinyl)pyrido[2,3-d]pyrimidin-2(1H)-one], the “Coupled exchange IC50 (5 min)” value in assay [1] is on record as 0.08 | nda μM. Moreover, the figures for the half-inhibitory concentration (IC50) in assay [2] (setting [4]) and in assay [3] (setting [5]) were 63 nM and ≥ 10000 nM, respectively.
For `C=CC(=O)N1CCN(c2nc(=O)n(-c3ccccc3C)c3nc(-c4ccccc4F)c(Cl)cc23)[C@@H](C)C1` [Example 60-14, 6-chloro-7-(2-fluorophenyl)-1-(2-methylphenyl)-4-((2S)-2-methyl-4-(2-propenoyl)-1-piperazinyl)pyrido[2,3-d]pyrimidin-2(1H)-one], in that order: 2.24 | nda μM, 946 nM and ≥ 10000 nM.
With `C=CC(=O)N1CCN(c2nc(=O)n(-c3ccccc3C)c3nc(-c4c(O)cccc4F)c(Cl)cc23)[C@@H](C)C1` [Example 60-15, 6-chloro-7-(2-fluoro-6-hydroxyphenyl)-1-(2-methylphenyl)-4-((2S)-2-methyl-4-(2-propenoyl)-1-piperazinyl)pyrido[2,3-d]pyrimidin-2(1H)-one], in assay [1], the “Coupled exchange IC50 (5 min)” value is listed as 0.686 | nda μM. For the same compound, the half-maximal inhibitory concentration (IC50) was 492 nM in assay [2] (setting [4]) and ≥ 10000 nM in assay [3] (setting [5]).
For `C=CC(=O)N1CCN(c2nc(=O)n(-c3ccccc3C(C)C)c3nc(-c4cc(OC)ccc4Br)c(Cl)cc23)[C@@H](C)C1` [Example 60-26, 7-(2-bromo-5-methoxyphenyl)-6-chloro-4-((2S)-2-methyl-4-(2-propenoyl)-1-piperazinyl)-1-(2-(2-propanyl)phenyl)pyrido[2,3-d]pyrimidin-2(1H)-one], in that order: 0.809 | nda μM, 387 nM and ≥ 10000 nM.
With `C=CC(=O)N1CCN(c2nc(=O)n(C(C(C)C)C(C)C)c3nc(-c4ccccc4F)c(Cl)cc23)CC1` [Example 60-31, 6-chloro-1-(2,4-dimethyl-3-pentanyl)-7-(2-fluorophenyl)-4-(4-(2-propenoyl)-1-piperazinyl)pyrido[2,3-d]pyrimidin-2(1H)-one], the “Coupled exchange IC50 (5 min)” value in assay [1] was found to be 0.919 µM. In assay [1], the “Coupled exchange IC50 (2 h)” value was determined as 115 nM. In addition, the IC50 in assay [2] (setting [4]) came out at 1000 nM; in assay [2] (setting [6]), 710 nM; in assay [3] (setting [5]), 40900 nM; in assay [3] (setting [7]), 86600 nM.
For the compound `C=CC(=O)N1CCN(c2nc(=O)n(C(CC)CC)c3nc(-c4c(C)ccc5[nH]ncc45)c(Cl)cc23)[C@@H](C)C1` [Example 60-32, 6-chloro-7-(5-methyl-1H-indazol-4-yl)-4-((2S)-2-methyl-4-(2-propenoyl)-1-piperazinyl)-1-(3-pentanyl)pyrido[2,3-d]pyrimidin-2(1H)-one], in assay [1], the “Coupled exchange IC50 (5 min)” value was determined as 0.392 µM. Besides, in assay [1], the “Coupled exchange IC50 (2 h)” value was found to be 157 nM. In addition, the half-maximal inhibitory concentration (IC50) is 221 nM in assay [2] (setting [4]), 213 nM in assay [2] (setting [6]), 87400 nM in assay [3] (setting [5]) and 63900 nM in assay [3] (setting [7]).
`C=CC(=O)N1CCN(c2nc(=O)n(CC(C)(C)C(F)(F)F)c3nc(-c4ccccc4F)c(Cl)cc23)[C@@H](C)C1` [Example 60-33, 6-chloro-7-(2-fluorophenyl)-4-((2S)-2-methyl-4-(2-propenoyl)-1-piperazinyl)-1-(3,3,3-trifluoro-2,2-dimethylpropyl)pyrido[2,3-d]pyrimidin-2(1H)-one]: the “Coupled exchange IC50 (5 min)” value in assay [1] is 1.24 µM. In assay [1], the “Coupled exchange IC50 (2 h)” value was found to be 139 nM. For the same compound, the IC50 is 1700 nM in assay [2] (setting [4]) and ≥ 100000 nM in assay [3] (setting [5]).
Take `C=CC(=O)N1CCN(c2nc(=O)n(CC(C)(C)C(F)(F)F)c3nc(-c4c(C)ccc5[nH]ncc45)c(Cl)cc23)[C@@H](C)C1` [Example 60-34, 6-chloro-7-(5-methyl-1H-indazol-4-yl)-4-((2S)-2-methyl-4-(2-propenoyl)-1-piperazinyl)-1-(3,3,3-trifluoro-2,2-dimethylpropyl)pyrido[2,3-d]pyrimidin-2(1H)-one]: the “Coupled exchange IC50 (5 min)” value in assay [1] is 0.478 | nda μM. For the same compound, the IC50 in assay [2] (setting [4]) was 508 nM; in assay [3] (setting [5]), ≥ 10000 nM.
For `C=CC(=O)N1CCN(c2nc(=O)n(-c3ccccc3C(C)C)c3nc(Cl)c(Cl)cc23)[C@@H](C)C1` [Example 61-1, 6,7-Dichloro-4-((2S)-2-methyl-4-(2-propenoyl)-1-piperazinyl)-1-(2-(2-propanyl)phenyl)pyrido[2,3-d]pyrimidin-2(1H)-one], the “Coupled exchange IC50 (2 h)” value in assay [1] is “nda | 0.776 μM”. The IC50 was 2480 nM in assay [2] (setting [4]), 992 nM in assay [2] (setting [6]), ≥ 100000 nM in assay [3] (setting [5]) and ≥ 11100 nM in assay [3] (setting [7]).
For the compound `C=CC(=O)N1CCN(c2nc(=O)n(-c3ccncc3C3CC3)c3cc(-c4c(O)cccc4F)c(Cl)cc23)[C@@H](C)C1` [Example 62-3, 6-chloro-1-(3 cyclopropyl-4-pyridinyl)-7-(2-fluoro-6-hydroxyphenyl)-4-((2S)-2-methyl-4-(2-propenoyl)-1-piperazinyl)-2(1H)-quinazolinone], the “Coupled exchange IC50 (5 min)” value in assay [1] is reported as 0.147 | nda μM. In addition, the IC50 was 845 nM in assay [2] (setting [4]) and ≥ 10000 nM in assay [3] (setting [5]).
In the case of `C=CC(=O)N1CCN(c2nc(=O)n(-c3ccccc3C(C)C)c3nc(N4CCC4)c(Cl)cc23)[C@@H](C)C1` [Example 69-2, 7-(1-azetidinyl)-6-chloro-4-((2S)-2-methyl-4-(2-propenoyl)-1-piperazinyl)-1-(2-(2-propanyl)phenyl)pyrido[2,3-d]pyrimidin-2(1H)-one], the “Coupled exchange IC50 (2 h)” value in assay [1] is “nda | 0.511 μM”. Also, the half-inhibitory concentration (IC50) was 1310 nM in assay [2] (setting [4]) and ≥ 33300 nM in assay [3] (setting [5]).
`C=CC(=O)N1CCN(c2nc(=O)n(-c3nccn3C(C)C)c3cc(-c4ccccc4F)c(Cl)cc23)[C@@H](C)C1` [Example 91, 6-Chloro-7-(2-fluorophenyl)-4-((2S)-2-methyl-4-(2-propenoyl)-1-piperazinyl)-1-(1-(2-propanyl)-1H-imidazol-2-yl)-2(1H)-quinazolinone]: the “Coupled exchange IC50 (5 min)” value in assay [1] is given as 0.2 | nda μM. Moreover, the IC50 in assay [2] (setting [4]) is 312 nM; in assay [3] (setting [5]), ≥ 10000 nM.
Take `CC(C)c1ccccc1-n1c(=O)nc(N2CCN(C(=O)/C=C/CN(C)C)CC2)c2cc(Cl)c(-c3c(O)cccc3F)cc21` [Example 92, 6-Chloro-4-(4-((2E)-4-(dimethylamino)-2-butenoyl)-1-piperazinyl)-7-(2-fluoro-6-hydroxyphenyl)-1-(2-(2-propanyl)phenyl)-2(1H)-quinazolinone]: the “Coupled exchange IC50 (2 h)” value in assay [1] is given as “nda | 0.123 μM”. Besides, the IC50 stood at 1550 nM in assay [2] (setting [6]) and 108000 nM in assay [3] (setting [7]).
